Compound in this assay: Nc1ncnc2c1ncn2[C@@H]1O[C@H](COP(=O)(O)OP(=O)(O)OP(=O)(O)O)[C@@H](O)[C@H]1O [adenosine triphosphate]
The experiment in a line: pEC50 of ATP-induced change in protein thermal stability (2D-TPP). In a few lines:
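Soluble protein was quantified by TMT LC-MS/MS after ultracentrifugation of Jurkat crude lysate that had been dosed at five concentrations including vehicle (10 min, room temperature), heated at 12 temperatures of 42–63.9 °C for 3 min, and incubated with NP40 and benzonase at 4 °C for 60 min. Fold changes against vehicle at each temperature were median-normalised, and pEC50 was derived from per-replicate dose-response fits over adjacent temperature pairs. Hits were called with permutation-based false discovery rate control in three independent experiments.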

A value given as a limit tells only on which side of the number the result lay.

A word on the pEC50: it is −log10 of the EC50, conventionally taken in molar units.
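Note: lysate dosed with Na-ATP at 0 0.005 0.05 0.5 and 2 mM.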

Chain of UniProt Q8NB16 (Q8NB16 whole entry): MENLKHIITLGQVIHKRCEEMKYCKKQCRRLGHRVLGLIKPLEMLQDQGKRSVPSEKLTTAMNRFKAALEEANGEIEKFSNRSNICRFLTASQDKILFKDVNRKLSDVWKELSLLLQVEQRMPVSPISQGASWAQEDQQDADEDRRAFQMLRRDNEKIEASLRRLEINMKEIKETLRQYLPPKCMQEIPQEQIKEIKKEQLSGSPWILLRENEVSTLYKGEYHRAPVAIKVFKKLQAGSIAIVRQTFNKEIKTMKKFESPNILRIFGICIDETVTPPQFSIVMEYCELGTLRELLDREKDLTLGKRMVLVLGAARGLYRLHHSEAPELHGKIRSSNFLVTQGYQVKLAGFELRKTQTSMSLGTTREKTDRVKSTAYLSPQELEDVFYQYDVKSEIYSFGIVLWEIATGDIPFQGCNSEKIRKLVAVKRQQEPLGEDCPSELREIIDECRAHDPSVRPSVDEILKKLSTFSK
Chain of UniProt Q14657 (Q14657 whole entry): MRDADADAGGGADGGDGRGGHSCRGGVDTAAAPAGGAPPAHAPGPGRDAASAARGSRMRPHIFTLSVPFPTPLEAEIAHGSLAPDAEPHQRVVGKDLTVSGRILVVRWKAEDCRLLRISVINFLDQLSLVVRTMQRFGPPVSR
Chain of UniProt Q9H944 (Q9H944 whole entry): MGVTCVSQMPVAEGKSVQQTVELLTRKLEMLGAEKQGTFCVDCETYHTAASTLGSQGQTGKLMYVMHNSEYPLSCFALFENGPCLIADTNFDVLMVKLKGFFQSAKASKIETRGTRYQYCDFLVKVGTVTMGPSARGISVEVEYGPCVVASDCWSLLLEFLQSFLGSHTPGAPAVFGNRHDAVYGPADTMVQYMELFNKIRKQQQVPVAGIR
Chain of UniProt Q8TBE9 (Q8TBE9 whole entry): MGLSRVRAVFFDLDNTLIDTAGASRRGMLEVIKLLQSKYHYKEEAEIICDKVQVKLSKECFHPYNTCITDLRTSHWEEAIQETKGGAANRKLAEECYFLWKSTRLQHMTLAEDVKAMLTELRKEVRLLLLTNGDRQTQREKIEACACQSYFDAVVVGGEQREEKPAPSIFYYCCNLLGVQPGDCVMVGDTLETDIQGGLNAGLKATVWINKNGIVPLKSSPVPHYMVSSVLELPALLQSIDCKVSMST
Chain of UniProt Q8N108 (Q8N108 whole entry): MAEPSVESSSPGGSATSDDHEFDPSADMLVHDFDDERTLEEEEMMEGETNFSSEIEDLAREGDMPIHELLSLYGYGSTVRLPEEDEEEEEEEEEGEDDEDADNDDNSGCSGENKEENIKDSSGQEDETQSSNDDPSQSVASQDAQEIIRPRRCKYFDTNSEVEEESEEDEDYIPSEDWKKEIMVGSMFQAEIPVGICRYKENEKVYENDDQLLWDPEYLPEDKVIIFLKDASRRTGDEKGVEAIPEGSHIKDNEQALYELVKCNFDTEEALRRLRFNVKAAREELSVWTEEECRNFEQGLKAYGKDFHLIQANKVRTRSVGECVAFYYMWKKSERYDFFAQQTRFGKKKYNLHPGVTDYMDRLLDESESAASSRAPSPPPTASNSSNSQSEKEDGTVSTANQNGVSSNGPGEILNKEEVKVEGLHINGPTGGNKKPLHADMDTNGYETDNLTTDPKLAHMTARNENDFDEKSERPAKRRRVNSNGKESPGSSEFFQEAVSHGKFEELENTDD
Chain of UniProt P52732 (P52732 whole entry): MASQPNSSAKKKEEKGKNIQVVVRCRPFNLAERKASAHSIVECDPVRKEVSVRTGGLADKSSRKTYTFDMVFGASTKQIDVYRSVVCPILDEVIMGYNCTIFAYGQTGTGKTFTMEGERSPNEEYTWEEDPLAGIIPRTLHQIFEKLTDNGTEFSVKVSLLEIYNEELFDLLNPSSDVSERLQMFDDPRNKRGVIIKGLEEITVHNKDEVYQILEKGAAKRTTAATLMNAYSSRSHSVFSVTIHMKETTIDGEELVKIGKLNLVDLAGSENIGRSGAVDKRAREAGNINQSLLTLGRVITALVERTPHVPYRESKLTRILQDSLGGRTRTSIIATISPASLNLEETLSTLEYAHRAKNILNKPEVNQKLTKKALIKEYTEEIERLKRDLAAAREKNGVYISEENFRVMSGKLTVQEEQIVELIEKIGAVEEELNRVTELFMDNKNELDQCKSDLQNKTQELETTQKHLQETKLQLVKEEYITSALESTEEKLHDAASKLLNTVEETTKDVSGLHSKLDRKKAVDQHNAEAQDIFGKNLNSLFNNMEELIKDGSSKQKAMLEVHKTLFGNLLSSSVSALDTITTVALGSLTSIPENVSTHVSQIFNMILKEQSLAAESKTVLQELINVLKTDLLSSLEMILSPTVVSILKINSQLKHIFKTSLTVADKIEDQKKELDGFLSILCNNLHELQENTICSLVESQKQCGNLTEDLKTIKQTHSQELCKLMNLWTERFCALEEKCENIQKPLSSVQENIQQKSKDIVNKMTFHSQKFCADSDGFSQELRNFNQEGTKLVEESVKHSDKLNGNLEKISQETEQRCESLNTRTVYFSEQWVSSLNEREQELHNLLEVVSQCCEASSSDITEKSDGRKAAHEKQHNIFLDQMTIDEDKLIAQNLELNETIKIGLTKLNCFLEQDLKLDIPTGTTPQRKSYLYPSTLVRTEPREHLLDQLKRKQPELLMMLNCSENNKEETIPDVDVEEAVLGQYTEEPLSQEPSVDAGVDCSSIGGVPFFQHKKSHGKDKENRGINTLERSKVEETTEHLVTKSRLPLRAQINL
Chain of UniProt Q9Y383 (Q9Y383 whole entry): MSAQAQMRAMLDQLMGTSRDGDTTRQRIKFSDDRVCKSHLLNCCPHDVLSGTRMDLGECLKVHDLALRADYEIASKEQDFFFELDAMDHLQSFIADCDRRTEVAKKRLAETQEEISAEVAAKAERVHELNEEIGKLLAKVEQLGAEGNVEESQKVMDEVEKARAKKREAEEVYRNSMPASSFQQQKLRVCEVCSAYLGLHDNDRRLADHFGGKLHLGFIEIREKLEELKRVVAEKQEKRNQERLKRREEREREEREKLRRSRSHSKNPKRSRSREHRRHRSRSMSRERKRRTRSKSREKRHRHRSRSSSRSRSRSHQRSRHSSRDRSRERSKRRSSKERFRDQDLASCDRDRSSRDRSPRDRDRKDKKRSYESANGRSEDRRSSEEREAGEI
Chain of UniProt Q9NWZ3 (Q9NWZ3 whole entry): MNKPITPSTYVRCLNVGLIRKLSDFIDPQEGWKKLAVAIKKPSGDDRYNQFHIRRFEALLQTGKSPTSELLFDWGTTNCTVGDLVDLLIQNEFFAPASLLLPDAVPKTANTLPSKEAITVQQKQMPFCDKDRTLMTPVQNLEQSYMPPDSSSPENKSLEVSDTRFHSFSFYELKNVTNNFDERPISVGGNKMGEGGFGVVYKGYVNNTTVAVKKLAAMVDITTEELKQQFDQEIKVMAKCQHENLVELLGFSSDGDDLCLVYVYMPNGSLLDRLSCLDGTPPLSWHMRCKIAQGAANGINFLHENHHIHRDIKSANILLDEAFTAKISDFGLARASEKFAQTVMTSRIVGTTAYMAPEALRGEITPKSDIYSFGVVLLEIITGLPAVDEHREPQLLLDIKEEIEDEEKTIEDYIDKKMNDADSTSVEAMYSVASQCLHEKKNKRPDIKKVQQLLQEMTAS
Chain of UniProt P40925 (P40925 whole entry): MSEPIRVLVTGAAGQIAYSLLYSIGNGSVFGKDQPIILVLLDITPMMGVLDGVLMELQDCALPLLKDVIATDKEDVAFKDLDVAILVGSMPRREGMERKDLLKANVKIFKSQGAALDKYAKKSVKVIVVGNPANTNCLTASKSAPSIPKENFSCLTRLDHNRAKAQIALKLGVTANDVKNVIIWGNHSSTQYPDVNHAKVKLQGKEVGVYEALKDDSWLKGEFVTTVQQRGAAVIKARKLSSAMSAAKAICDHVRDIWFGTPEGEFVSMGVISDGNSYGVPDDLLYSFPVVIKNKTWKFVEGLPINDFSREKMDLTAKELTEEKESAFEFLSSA
Chain of UniProt Q96GW9 (Q96GW9 whole entry): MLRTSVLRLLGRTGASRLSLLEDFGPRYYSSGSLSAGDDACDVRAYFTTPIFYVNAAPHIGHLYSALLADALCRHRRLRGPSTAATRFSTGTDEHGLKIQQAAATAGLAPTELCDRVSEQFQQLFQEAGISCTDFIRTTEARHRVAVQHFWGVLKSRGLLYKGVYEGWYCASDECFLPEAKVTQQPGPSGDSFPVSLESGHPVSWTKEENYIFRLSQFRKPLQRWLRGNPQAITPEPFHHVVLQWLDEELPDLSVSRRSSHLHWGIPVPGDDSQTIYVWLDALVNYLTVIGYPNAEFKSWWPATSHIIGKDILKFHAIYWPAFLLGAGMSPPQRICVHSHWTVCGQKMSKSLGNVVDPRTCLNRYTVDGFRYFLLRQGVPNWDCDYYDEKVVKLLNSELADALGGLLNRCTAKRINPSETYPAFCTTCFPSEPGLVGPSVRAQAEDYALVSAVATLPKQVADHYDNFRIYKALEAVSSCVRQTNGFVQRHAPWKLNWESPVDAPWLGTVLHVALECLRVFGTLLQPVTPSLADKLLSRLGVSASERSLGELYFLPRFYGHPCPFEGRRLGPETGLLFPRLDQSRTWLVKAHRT
Chain of UniProt O14732 (O14732 whole entry): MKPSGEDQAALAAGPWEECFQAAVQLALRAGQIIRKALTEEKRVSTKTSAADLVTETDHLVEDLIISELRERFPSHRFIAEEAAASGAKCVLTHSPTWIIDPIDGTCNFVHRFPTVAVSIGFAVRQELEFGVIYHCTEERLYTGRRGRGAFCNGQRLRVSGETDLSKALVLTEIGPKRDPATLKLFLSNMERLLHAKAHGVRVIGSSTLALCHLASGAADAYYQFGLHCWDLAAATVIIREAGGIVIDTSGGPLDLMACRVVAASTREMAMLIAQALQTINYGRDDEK
Chain of UniProt Q9BRT6 (Q9BRT6 whole entry): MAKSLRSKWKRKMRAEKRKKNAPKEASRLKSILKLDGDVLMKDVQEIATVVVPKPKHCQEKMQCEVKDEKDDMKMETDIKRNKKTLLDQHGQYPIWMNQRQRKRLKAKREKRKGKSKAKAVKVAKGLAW

In the case of “HTATSF1 (effect direction: stabilized) (UniProt O43719)”, the negative-log EC50 (pEC50) is under 2.7.

Turning to “HUWE1 (effect direction: stabilized) (UniProt Q7Z6Z7)”, the pEC50 was under 2.7.

On to “IDH3A (effect direction: stabilized) (UniProt P50213)”, for which the negative-log EC50 (pEC50) was under 2.7.

For the target “IKBKG (effect direction: stabilized) (UniProt Q9Y6K9)”, the pEC50 is 3.42.

Take “ILF3 (effect direction: stabilized) (UniProt Q12906)”: the pEC50 was found to be 3.13.

For “ILKAP (effect direction: stabilized) (UniProt Q9H0C8)”, the negative logarithm of the EC50 (pEC50) was under 2.7.

As for “IMPA2 (effect direction: destabilized) (UniProt O14732)”, the negative logarithm of the EC50 (pEC50) was under 2.7.

Take “IMPDH1 (effect direction: stabilized) (UniProt P20839)”: the pEC50 is 3.32.

Take “IPO5 (effect direction: stabilized) (UniProt O00410)”: the negative-log EC50 (pEC50) is under 2.7.

For the target “IPO9 (effect direction: destabilized) (UniProt Q96P70)”, the negative-log EC50 (pEC50) is 3.67.

On to “IQGAP1 (effect direction: destabilized) (UniProt P46940)”, for which the pEC50 was 3.65.

Regarding “IRAK4 (effect direction: stabilized) (UniProt Q9NWZ3)”, the pEC50 worked out at 3.3.

With “ISG15 (effect direction: stabilized) (UniProt P05161)”, the negative-log EC50 (pEC50) came to 2.74.

As for “ITPK1 (effect direction: stabilized) (UniProt Q13572)”, the pEC50 turned out to be 3.89.

In the case of “ITPR2 (effect direction: stabilized) (UniProt Q14571)”, the pEC50 is 3.28.

On to “JAKMIP1 (effect direction: stabilized) (UniProt Q96N16)”, for which the negative logarithm of the EC50 (pEC50) was 3.3.

“JMJD6 (effect direction: stabilized) (UniProt Q6NYC1)”: the negative logarithm of the EC50 (pEC50) came out at 3.21.

In the case of “KATNA1 (effect direction: stabilized) (UniProt O75449)”, the negative-log EC50 (pEC50) turned out to be 3.42.

Consider “KATNAL1 (effect direction: stabilized) (UniProt Q9BW62)”, for which the pEC50 worked out at 3.26.

With “KIF1B (effect direction: stabilized) (UniProt O60333)”, the negative logarithm of the EC50 (pEC50) was found to be 3.68.

Take “KIF2C (effect direction: stabilized) (UniProt Q99661)”: the negative-log EC50 (pEC50) stood at 4.18.

As to “KIF3B (effect direction: stabilized) (UniProt O15066)”, the pEC50 is 4.07.

On to “KIF5B (effect direction: stabilized) (UniProt P33176)”, for which the negative-log EC50 (pEC50) came out at 4.09.

For “KIF11 (effect direction: stabilized) (UniProt P52732)”, the pEC50 is 3.26.

As for “KIF15 (effect direction: stabilized) (UniProt Q9NS87)”, the pEC50 amounted to 3.11.

As for “KIF20A (effect direction: stabilized) (UniProt O95235)”, the pEC50 is 3.14.

For the target “KIF21B (effect direction: stabilized) (UniProt O75037)”, the pEC50 worked out at 3.38.

Regarding “KLC1 (effect direction: stabilized) (UniProt Q07866)”, the negative-log EC50 (pEC50) came out at 3.95.

Take “KLC2 (effect direction: stabilized) (UniProt Q9H0B6)”: the pEC50 was 4.06.

Consider “KLHDC4 (effect direction: stabilized) (UniProt Q8TBB5)”, for which the negative-log EC50 (pEC50) was under 2.7.

“KPNB1 (effect direction: stabilized) (UniProt Q14974)”: the pEC50 was 2.96.

As to “KRI1 (effect direction: destabilized) (UniProt Q8N9T8)”, the negative logarithm of the EC50 (pEC50) came out at 2.81.

For “LAGE3 (effect direction: stabilized) (UniProt Q14657)”, the negative-log EC50 (pEC50) was 3.86.

With “LARP1 (effect direction: stabilized) (UniProt Q6PKG0)”, the pEC50 is under 2.7.

For the target “LARP7 (effect direction: stabilized) (UniProt Q4G0J3)”, the negative-log EC50 (pEC50) is 3.03.

As to “LARS2 (effect direction: stabilized) (UniProt Q15031)”, the pEC50 turned out to be 3.59.

Regarding “LCLAT1 (effect direction: stabilized) (UniProt Q6UWP7)”, the pEC50 was found to be 3.56.

Turning to “LEMD2 (effect direction: stabilized) (UniProt Q8NC56)”, the negative-log EC50 (pEC50) is 3.8.

As to “LLPH (effect direction: stabilized) (UniProt Q9BRT6)”, the pEC50 is under 2.7.

On to “LRPPRC (effect direction: stabilized) (UniProt P42704)”, for which the pEC50 was found to be 3.65.

For “LRWD1 (effect direction: stabilized) (UniProt Q9UFC0)”, the pEC50 was 3.85.

With “LUC7L2 (effect direction: stabilized) (UniProt Q9Y383)”, the negative logarithm of the EC50 (pEC50) is 3.22.

In the case of “MACROD1 (effect direction: stabilized) (UniProt Q9BQ69)”, the pEC50 came to 3.27.

As for “MAGED2 (effect direction: destabilized) (UniProt Q9UNF1)”, the pEC50 came out at 3.7.

As to “MAP3K4 (effect direction: stabilized) (UniProt Q9Y6R4)”, the negative-log EC50 (pEC50) amounted to 3.63.

“MAP4K5 (effect direction: stabilized) (UniProt Q9Y4K4)”: the negative-log EC50 (pEC50) was found to be 3.41.

On to “MAPRE1 (effect direction: stabilized) (UniProt Q15691)”, for which the pEC50 was under 2.7.

Consider “MARS2 (effect direction: stabilized) (UniProt Q96GW9)”, for which the pEC50 was 3.24.

Take “MCM3 (effect direction: stabilized) (UniProt P25205)”: the pEC50 was 3.53.

As to “MCM5 (effect direction: stabilized) (UniProt P33992)”, the negative-log EC50 (pEC50) worked out at 3.59.

Take “MDH1 (effect direction: stabilized) (UniProt P40925)”: the pEC50 came to 5.

As to “MDH2 (effect direction: stabilized) (UniProt P40926)”, the negative logarithm of the EC50 (pEC50) was found to be 2.78.

On to “MDP1 (effect direction: destabilized) (UniProt Q86V88)”, for which the pEC50 was under 2.7.

For “MED20 (effect direction: stabilized) (UniProt Q9H944)”, the pEC50 was under 2.7.

Regarding “MEPCE (effect direction: stabilized) (UniProt Q7L2J0)”, the pEC50 was found to be 2.82.

Consider “MIER1 (effect direction: stabilized) (UniProt Q8N108)”, for which the pEC50 is under 2.7.

In the case of “MLKL (effect direction: stabilized) (UniProt Q8NB16)”, the pEC50 was 3.44.

As for “MOB2 (effect direction: stabilized) (UniProt Q70IA6)”, the negative logarithm of the EC50 (pEC50) is 3.21.

Take “MOCS3 (effect direction: stabilized) (UniProt O95396)”: the pEC50 worked out at 3.95.

Take “MOV10 (effect direction: destabilized) (UniProt Q9HCE1)”: the negative logarithm of the EC50 (pEC50) was determined as 3.24.

On to “MRPL2 (effect direction: destabilized) (UniProt Q5T653)”, for which the negative logarithm of the EC50 (pEC50) was found to be 3.46.

Consider “MRPL19 (effect direction: destabilized) (UniProt P49406)”, for which the pEC50 stood at 4.49.

In the case of “MRPL30 (effect direction: destabilized) (UniProt Q8TCC3)”, the pEC50 worked out at 3.37.

Take “MRPS6 (effect direction: destabilized) (UniProt P82932)”: the negative logarithm of the EC50 (pEC50) worked out at 3.58.

In the case of “MRPS22 (effect direction: destabilized) (UniProt P82650)”, the pEC50 was found to be 4.46.

On to “MRPS23 (effect direction: destabilized) (UniProt Q9Y3D9)”, for which the negative logarithm of the EC50 (pEC50) came to 3.89.

“MRTO4 (effect direction: destabilized) (UniProt Q9UKD2)”: the negative-log EC50 (pEC50) was under 2.7.

Regarding “MSI2 (effect direction: stabilized) (UniProt Q96DH6)”, the negative-log EC50 (pEC50) is under 2.7.

In the case of “MSN (effect direction: destabilized) (UniProt P26038)”, the negative logarithm of the EC50 (pEC50) amounted to 3.04.

Take “MTHFD1L (effect direction: stabilized) (UniProt Q6UB35)”: the pEC50 was found to be 3.33.

For “MTHFD2 (effect direction: stabilized) (UniProt P13995)”, the pEC50 was found to be 3.15.

As for “MTHFSD (effect direction: stabilized) (UniProt Q2M296)”, the pEC50 was 3.62.

As for “MTR (effect direction: stabilized) (UniProt Q99707)”, the pEC50 was found to be 3.13.

Consider “MYBBP1A (effect direction: destabilized) (UniProt Q9BQG0)”, for which the pEC50 is 2.77.

In the case of “MYH9 (effect direction: stabilized) (UniProt P35579)”, the pEC50 came to 3.6.

“MYH10 (effect direction: stabilized) (UniProt P35580)”: the pEC50 was found to be 4.1.

For the target “NAGK (effect direction: stabilized) (UniProt Q9UJ70)”, the pEC50 came out at 3.15.

Consider “NANP (effect direction: destabilized) (UniProt Q8TBE9)”, for which the negative logarithm of the EC50 (pEC50) was 3.08.

As to “NAP1L1 (effect direction: stabilized) (UniProt P55209)”, the pEC50 was under 2.7.

Take “NAP1L4 (effect direction: stabilized) (UniProt Q99733)”: the negative-log EC50 (pEC50) is under 2.7.

These data come from the supplement of paper PMC6411743.
